Experimental data: ChEMBL document CHEMBL5390209, “Spinosyn A and Its Derivative Inhibit Colorectal Cancer Cell Growth via the EGFR Pathway” (J Nat Prod, 2023)
Activity calls are given as the source filed them.

Assays:
[1] = biological target: Epidermal growth factor receptor (Homo sapiens) (UniProt P00533); test: Inhibition of EGFR in human HT-29 cells assessed as reduction in STAT3 phosphorylation level at 15 uM by Western blot analysis; assay type: cell-based; conditions: time 3-15 hrs, TDE = time-dependent effect
Chain of Epidermal growth factor receptor (Homo sapiens) (P00533 whole entry): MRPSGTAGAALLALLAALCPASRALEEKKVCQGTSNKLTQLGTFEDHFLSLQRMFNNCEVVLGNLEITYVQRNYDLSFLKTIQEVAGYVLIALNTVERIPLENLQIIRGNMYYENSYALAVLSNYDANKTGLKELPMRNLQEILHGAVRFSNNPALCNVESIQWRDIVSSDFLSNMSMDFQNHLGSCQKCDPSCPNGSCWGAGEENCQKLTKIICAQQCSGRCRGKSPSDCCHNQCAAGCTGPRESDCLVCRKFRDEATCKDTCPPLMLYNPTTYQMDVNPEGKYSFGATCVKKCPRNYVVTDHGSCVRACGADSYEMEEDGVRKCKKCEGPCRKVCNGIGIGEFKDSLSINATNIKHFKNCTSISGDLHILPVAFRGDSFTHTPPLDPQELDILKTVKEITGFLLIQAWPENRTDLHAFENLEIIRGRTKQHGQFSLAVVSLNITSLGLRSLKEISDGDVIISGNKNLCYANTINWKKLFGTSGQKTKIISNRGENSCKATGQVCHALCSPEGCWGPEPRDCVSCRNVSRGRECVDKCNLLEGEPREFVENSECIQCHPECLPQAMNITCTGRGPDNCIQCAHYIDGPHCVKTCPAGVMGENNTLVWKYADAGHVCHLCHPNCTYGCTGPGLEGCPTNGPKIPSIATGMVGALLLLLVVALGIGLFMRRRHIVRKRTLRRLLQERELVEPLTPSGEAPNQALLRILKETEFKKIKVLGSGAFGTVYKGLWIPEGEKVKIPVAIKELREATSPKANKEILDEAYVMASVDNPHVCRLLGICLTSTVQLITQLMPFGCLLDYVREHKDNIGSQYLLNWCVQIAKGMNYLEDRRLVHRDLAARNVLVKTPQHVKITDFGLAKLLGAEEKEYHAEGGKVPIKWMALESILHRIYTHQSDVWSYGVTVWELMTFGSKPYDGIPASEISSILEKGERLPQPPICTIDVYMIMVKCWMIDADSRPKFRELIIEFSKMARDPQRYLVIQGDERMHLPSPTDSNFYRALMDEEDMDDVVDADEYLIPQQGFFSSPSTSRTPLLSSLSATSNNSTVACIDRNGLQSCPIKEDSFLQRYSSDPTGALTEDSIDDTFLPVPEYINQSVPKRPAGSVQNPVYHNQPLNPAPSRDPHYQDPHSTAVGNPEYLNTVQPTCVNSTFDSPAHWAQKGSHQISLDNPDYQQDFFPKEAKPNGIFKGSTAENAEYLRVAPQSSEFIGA

[2] = Toxicity in human HT-29 cells xenografted Balb/c mouse assessed as change in liver pathology at 5 mg/kg/day, ip administrated for every other day and measured after 28 days; assay type: organism-based; conditions: in vivo, 672 h, time 28 day
HT-29 [3] = test: Inhibition of colony formation in double EGFR/HER2 knockdown human HT-29 cells at 6 uM incubated for 14 days by crystal violet staining based colony formation assay; assay type: functional, cell-based; conditions: time 14.0 day
[4] = biological target: Epidermal growth factor receptor (Homo sapiens) (UniProt P00533); test: Inhibition of EGFR in human HT-29 cells assessed as reduction in MEK1/2 phosphorylation level at 15 uM by Western blot analysis; assay type: cell-based; conditions: time 3-15 hrs, TDE = time-dependent effect
HT-29 [5] = test: Inhibition of colony formation in EGFR knockdown human HT-29 cells at 6 uM incubated for 14 days by crystal violet staining based colony formation assay; assay type: functional, cell-based; conditions: time 14.0 day
[6] = biological target: Receptor tyrosine-protein kinase erbB-2 (Homo sapiens) (UniProt P04626); test: Inhibition of HER2 in human HT-29 cells at 15 uM by Western blot analysis; assay type: cell-based; conditions: time 3-15 hrs, TDE = time-dependent effect
Chain of Receptor tyrosine-protein kinase erbB-2 (Homo sapiens) (P04626 whole entry): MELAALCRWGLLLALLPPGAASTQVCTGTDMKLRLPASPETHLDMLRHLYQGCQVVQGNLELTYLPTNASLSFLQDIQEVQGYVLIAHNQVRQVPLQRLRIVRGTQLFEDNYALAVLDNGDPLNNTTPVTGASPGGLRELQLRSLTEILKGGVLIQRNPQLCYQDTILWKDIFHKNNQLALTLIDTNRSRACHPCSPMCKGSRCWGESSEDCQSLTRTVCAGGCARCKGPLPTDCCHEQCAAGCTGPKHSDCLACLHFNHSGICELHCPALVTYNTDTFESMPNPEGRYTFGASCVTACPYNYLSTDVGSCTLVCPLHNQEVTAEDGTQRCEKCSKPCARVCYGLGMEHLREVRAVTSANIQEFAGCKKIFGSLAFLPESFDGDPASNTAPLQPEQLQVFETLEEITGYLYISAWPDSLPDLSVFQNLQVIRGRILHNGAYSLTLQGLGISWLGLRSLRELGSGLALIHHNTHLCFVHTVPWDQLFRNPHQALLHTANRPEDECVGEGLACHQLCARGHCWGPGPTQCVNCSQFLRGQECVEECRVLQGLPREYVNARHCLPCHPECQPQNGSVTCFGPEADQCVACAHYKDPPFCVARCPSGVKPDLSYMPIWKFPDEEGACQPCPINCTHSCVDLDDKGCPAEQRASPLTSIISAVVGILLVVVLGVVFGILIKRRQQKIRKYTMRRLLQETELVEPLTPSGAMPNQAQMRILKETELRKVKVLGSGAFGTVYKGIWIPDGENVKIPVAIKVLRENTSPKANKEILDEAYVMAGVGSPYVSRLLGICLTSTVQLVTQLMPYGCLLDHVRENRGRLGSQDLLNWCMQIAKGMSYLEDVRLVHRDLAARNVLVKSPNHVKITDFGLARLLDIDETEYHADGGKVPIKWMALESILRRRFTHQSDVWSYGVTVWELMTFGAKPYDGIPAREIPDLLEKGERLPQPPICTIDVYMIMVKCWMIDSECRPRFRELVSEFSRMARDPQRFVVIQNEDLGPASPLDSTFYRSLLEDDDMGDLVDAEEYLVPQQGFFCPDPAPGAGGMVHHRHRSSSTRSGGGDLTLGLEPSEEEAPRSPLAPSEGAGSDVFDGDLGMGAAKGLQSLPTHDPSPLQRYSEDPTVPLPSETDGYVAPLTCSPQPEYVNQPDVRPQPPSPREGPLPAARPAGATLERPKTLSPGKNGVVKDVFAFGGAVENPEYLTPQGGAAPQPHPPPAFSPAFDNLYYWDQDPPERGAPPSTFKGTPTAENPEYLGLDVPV

[7] = biological target: Epidermal growth factor receptor (Homo sapiens) (UniProt P00533); test: Inhibition of EGFR in human HT-29 cells assessed as reduction in STAT3 phosphorylation level at 3.75 to 15 uM incubated for 24 hrs by Western blot analysis; assay type: cell-based; conditions: dose 3.75-15 µM
HT-29 [8] = test: Inhibition of colony formation in HER2 knockdown human HT-29 cells at 6 uM incubated for 14 days by crystal violet staining based colony formation assay; assay type: functional, cell-based; conditions: time 14.0 day
[9] = biological target: Epidermal growth factor receptor (Homo sapiens) (UniProt P00533); test: Inhibition of EGFR in human HT-29 cells assessed as reduction in ratio of p-EGFR/EGFR level at 15 uM measured after 3 to 15 hrs by Western blotting analysis; assay type: cell-based; conditions: time 3-15 hrs
HT-29 [10] = test: Antitumor activity against human HT-29 cells xenografted Balb/c mouse assessed as inhibited tumor growth at 5 mg/kg/day, ip administrated for every other day and measured after 6 days; assay type: functional, organism-based; conditions: time 6.0 day
DLD-1 = test: Inhibition of colony formation in human DLD-1 cells at 6 uM incubated for 14 days by crystal violet staining based colony formation assay; assay type: functional, cell-based; conditions: time 14.0 day
[11] = Toxicity in human HT-29 cells xenografted Balb/c mouse assessed as change in body weight at 5 mg/kg/day, ip administrated for every other day and measured after 6 days; assay type: organism-based; conditions: in vivo, 144 h, time 6 day
[12] = Toxicity in human HT-29 cells xenografted Balb/c mouse assessed as change in lung pathology at 5 mg/kg/day, ip administrated for every other day and measured after 28 days; assay type: organism-based; conditions: in vivo, 672 h, time 28 day
SW480 [13] = test: Inhibition of colony formation in double EGFR/HER2 knockdown human SW480 cells at 6 uM incubated for 14 days by crystal violet staining based colony formation assay; assay type: functional, cell-based; conditions: time 14.0 day
[14] = Toxicity in human HT-29 cells xenografted Balb/c mouse assessed as change in heart pathology at 5 mg/kg/day, ip administrated for every other day and measured after 28 days; assay type: organism-based; conditions: in vivo, 672 h, time 28 day
SW480 [15] = test: Inhibition of colony formation in EGFR knockdown human SW480 cells at 6 uM incubated for 14 days by crystal violet staining based colony formation assay; assay type: functional, cell-based; conditions: time 14.0 day
HT-29 [16] = test: Inhibition of HER2 in human HT-29 cells xenografted in BALB/c nude mouse assessed as HER2 protein level in tumor at 5 mg/kg/day, ip administrated for every other day and measured after 28 days by Western blotting analysis; assay type: functional, organism-based; conditions: time 28.0 day
[17] = biological target: Epidermal growth factor receptor (Homo sapiens) (UniProt P00533); test: Inhibition of EGFR in human SW480 cells assessed as reduction in STAT3 phosphorylation level at 3.75 to 15 uM incubated for 24 hrs by Western blot analysis; assay type: cell-based; conditions: dose 3.75-15 µM
HT-29 [18] = test: Antitumor activity against human HT-29 cells xenografted Balb/c mouse assessed as reduction in Ki67 expression level at 5 mg/kg/day, ip administrated for every other day and measured after 28 days by immunohistochemistry staining method; assay type: functional, organism-based; conditions: time 28.0 day
[19] = biological target: Epidermal growth factor receptor (Homo sapiens) (UniProt P00533); test: Inhibition of EGFR in human HT-29 cells at 15 uM by Western blot analysis; assay type: cell-based; conditions: time 3-15 hrs, TDE = time-dependent effect
HT-29 [20] = test: Antitumor activity against human HT-29 cells xenografted Balb/c mouse assessed as reduction in tumor growth at 5 mg/kg/day, ip administrated for every other day and measured after 28 days; assay type: functional, organism-based; conditions: time 28.0 day
HT-29 [21] = test: Inhibition of EGFR in human HT-29 cells xenografted in BALB/c nude mouse assessed as reduction in EGFR protein expression level at 2.5 mg/kg/day, ip administrated for every other day and measured after 28 days by immunohistochemistry staining based analysis; assay type: functional, organism-based; conditions: time 28.0 day
[22] = biological target: Epidermal growth factor receptor (Homo sapiens) (UniProt P00533); test: Inhibition of EGFR in human HT-29 cells assessed as reduction in STAT3 phosphorylation level at 0.5 to 2 uM incubated for 24 hrs by Western blot analysis; assay type: cell-based; conditions: dose 0.5-2 µM
[23] = Toxicity in human HT-29 cells xenografted Balb/c mouse assessed as change in kidney pathology at 2.5 mg/kg/day, ip administrated for every other day and measured after 28 days; assay type: organism-based; conditions: in vivo, 672 h, time 28 day
LoVo = test: Inhibition of colony formation in human LoVo cells at 0.75 uM incubated for 14 days by crystal violet staining based colony formation assay; assay type: functional, cell-based; conditions: time 14.0 day
[24] = biological target: Epidermal growth factor receptor (Homo sapiens) (UniProt P00533); test: Inhibition of EGFR in human HT-29 cells assessed as reduction in STAT3 phosphorylation level at 2 uM by Western blotting analysis; assay type: cell-based; conditions: time 3-15 hrs, TDE = time-dependent effect
[25] = Toxicity in human HT-29 cells xenografted Balb/c mouse assessed as change in spleen pathology at 2.5 mg/kg/day, ip administrated for every other day and measured after 28 days; assay type: organism-based; conditions: in vivo, 672 h, time 28 day
HT-29 [26] = test: Inhibition of colony formation in double EGFR/HER2 knockdown human HT-29 cells at 0.75 uM incubated for 14 days by crystal violet staining based colony formation assay; assay type: functional, cell-based; conditions: time 14.0 day
HT-29 [27] = test: Antitumor activity against human HT-29 cells xenografted Balb/c mouse assessed as reduction in tumor growth at 2.5 mg/kg/day, ip administrated for every other day and measured after 28 days; assay type: functional, organism-based; conditions: time 28.0 day
[28] = biological target: Epidermal growth factor receptor (Homo sapiens) (UniProt P00533); test: Inhibition of EGFR in human HT-29 cells at 2 uM by Western blot analysis; assay type: cell-based; conditions: time 3-15 hrs, TDE = time-dependent effect
HCT-116 = test: Inhibition of colony formation in human HCT-116 cells at 0.75 uM incubated for 14 days by crystal violet staining based colony formation assay; assay type: functional, cell-based; conditions: time 14.0 day
HT-29 [29] = test: Inhibition of colony formation in HER2 knockdown human HT-29 cells at 0.75 uM incubated for 14 days by crystal violet staining based colony formation assay; assay type: functional, cell-based; conditions: time 14.0 day
HT-29 [30] = test: Inhibition of HER2 in human HT-29 cells xenografted in BALB/c nude mouse assessed as reduction in HER2 protein expression level at 2.5 mg/kg/day, ip administrated for every other day and measured after 28 days by immunohistochemistry staining based analysis; assay type: functional, organism-based; conditions: time 28.0 day
SW480 [31] = test: Inhibition of colony formation in EGFR knockdown human SW480 cells at 0.75 uM incubated for 14 days by crystal violet staining based colony formation assay; assay type: functional, cell-based; conditions: time 14.0 day
HT-29 [32] = test: Antitumor activity against human HT-29 cells xenografted Balb/c mouse assessed as reduction in Ki67 expression level at 2.5 mg/kg/day, ip administrated for every other day and measured after 28 days by immunohistochemistry staining method; assay type: functional, organism-based; conditions: time 28.0 day
HT-29 [33] = test: Inhibition of EGFR in human HT-29 cells xenografted in BALB/c nude mouse assessed as EGFR protein level in tumor at 2.5 mg/kg/day, ip administrated for every other day and measured after 28 days by Western blotting analysis; assay type: functional, organism-based; conditions: time 28.0 day

CC[C@H]1CCC[C@H](O[C@H]2CC[C@H](N(C)C)[C@@H](C)O2)[C@@H](C)C(=O)C2=C[C@@H]3[C@@H](C=C[C@@H]4C[C@@H](O[C@@H]5O[C@@H](C)[C@H](OC)[C@@H](OC)[C@H]5OC)C[C@@H]34)[C@@H]2CC(=O)O1 [SPINOSYN A]
inactive: Activity (HT-29 [3]) | Activity (HT-29 [5]) | Activity (HT-29 [8]) | Activity (SW480 [13])
active: inhibition [1] Tde | inhibition [4] Tde | inhibition [6] Tde | inhibition [7] | inhibition [9] | inhibition (HT-29 [10]) | inhibition (DLD-1) | Activity (SW480 [15]) | inhibition (HT-29 [16]) | inhibition [17] | Activity (HT-29 [18]) | inhibition [19] Tde | Activity (HT-29 [20])
Non-Toxic: Activity [2] | Activity [11] | Activity [12] | Activity [14]

CC[C@H]1CCC[C@H](O[C@H]2CC[C@H](N(C)CC(O)CN3CCNCC3)[C@@H](C)O2)[C@@H](C)C(=O)C2=C[C@@H]3[C@@H](C=C[C@@H]4C[C@@H](O[C@@H]5O[C@@H](C)[C@H](OC)[C@@H](OC)[C@H]5OC)C[C@@H]34)[C@@H]2CC(=O)O1 (stereo partly specified)
Non-Toxic: Activity [23] | Activity [25]
inactive: Activity (HT-29 [26]) | Activity (HT-29 [29]) | Activity (SW480 [31])
active: inhibition (HT-29 [21]) | inhibition [22] | inhibition (LoVo) | inhibition [24] Tde | Activity (HT-29 [27]) | inhibition [28] Tde | inhibition (HCT-116) | inhibition (HT-29 [30]) | Activity (HT-29 [32]) | inhibition (HT-29 [33])
